The values below come from patent publication US9017938B2, “Use of microrna-199b-5p in medical and diagnostic field” (Advanced Accelerator Applications, priority 2009, dated 2015).

Data set [1] deals with Daoy cells. Briefly: In-vitro cell-motility assay (Boyden chamber). The data set is classed as cell-based, human. Conditions: 199bSC1 vs empty vector control, 0.5% FBS chemoattractant. On the procedure:
The control DAOY cell line and the stable DAOY-199bSC1 clone were used in the ‘cell-motility’ assays. Cell migration assays were performed with 8-μm pore size Transwells (Costar). The cells were suspended by trypsinization, washed, and resuspended in 100 μl serum-free DMEM containing 0.1% BSA (5×10^4 cells) and placed in the upper chamber of the Transwells. The lower chamber was filled with 600 μl serum-free DMEM supplemented with 0.5% FBS, as the chemo-attractor. The cells were allowed to migrate for 1 h at 37° C. Cells migrating to the lower side of the polycarbonate membrane were fixed with 2.5% glutaraldehyde and stained with Hematoxylin solution (Sigma). The cells were counted, and the analysis performed on three Transwells for each condition, and each experiment was repeated twice.

Data set [2] concerns Daoy cells. Briefly: FACS cell-cycle analysis (propidium iodine). Format: cell-based, human. On the procedure: The flow cytometry analysis of S-phase fractions and cell-cycle kinetics were carried out using a FACSCalibur (Becton Dickinson, San Jose, Calif.) using CELL Quest version 3.3 software. The CD133 studies were carried out using the same instrument, with antibodies from Miltenyi Biotec (Auburn, Calif.), according to the manufacturer instructions. In brief, the cells were blocked in Fc receptor blocking reagent and incubated with an anti-CD133/1 (AC133)-phycoerythrin antibody (Miltenyi Biotec), for 10 min in the dark at 4° C. The cells were then washed and resuspended in PBS. Cells expressing higher levels of CD133 than the immunoglobulin G (IgG) controls were considered positive. For analyses of the side populations, cells […] were incubated with Hoechst 33342 (5 μmol/L; Sigma) for 90 min at 37° C. in EMEM containing 2% FBS. To ensure the correct identification of the side population cells, the cells were incubated as above with the addition of 50 μM verapamil (Sigma).

In data set [3] the test system is Daoy cells. Briefly: Orthotopic cerebellar xenograft (BLI, PET-CT, immunohistochemistry). The data set is classed as in vivo, nude mice. Conditions: 199bSC1 clone injected into fourth ventricle, four weeks, vs control cells. On the procedure:
The mice were kept in a ventilated cage (26° C.) for 1 h prior to imaging studies. Anesthesia was performed with intraperitoneal administration of a mixture of ketamine (100 mg/kg) and xylazine (10 mg/kg) (injection volume, 100 μl/10 g). PET was performed 1 h after administration of 3′-deoxy-3′-[18F]fluorothymidine ([18F]FLT), a marker of tumor proliferation (50 μL; 7.4 MBq; scan time, 18 min), in a lateral caudal vein, using an animal PET scanner (GE Healthcare eXplore Vista, FWHM 1.6 mm). High resolution CT studies (GE Healtcare eXplore Locus; spatial resolution, 45 μm) were performed within 24 h from the PET.
Lesion volumes were calculated from PET data using in-house-developed software (based on IDL, ITT Vis Inc), by summarizing all spatially connected voxels with SUV>50% SUVmax. Lesion profiles defined with these procedures were used for ROI-based comparison between AdV5-Mock and AdV5-199b.
Unmasking was performed in 10 mM citrate buffer, pH 6, at 97° C. for 45 min. […]
To establish intracerebellar xenograft models, 6-to-8-week-old SCID mice were anesthetized with Tribromoethanol (Avertin®) (50 mg/kg); after this, a small skin incision (1 mm) was made and a burr hole (0.7 mm in diameter) created with a microsurgical drill (Fine Science Tools, Foster City, Calif.). […] The animals were monitored weekly by bioluminescence to evaluate tumor growth for 8 weeks.

Data set [4] deals with HES1 3′UTR. Briefly: Luciferase reporter assay, HES1 3′UTR. Format: cell-based, human. The settings on record: co-transfected miR-199b-5p expression vector. The protocol:
To determine the activity of miR-199b-5p on repression of the luciferase-3′UTR fused constructs, the pREYZO-miR-199b-5p construct and the pRL-CMV-3′UTR target construct were co-transfected into HEK293 cells at a ratio of 10:1, using the Polyfect reagent (Qiagen) together with the pGL3 basic vector, in the absence and presence of 2-OM (400 nM). Luciferase activities were analysed using a Dual Luciferase Reporter Assay system (Promega, Madison, Wis.).
Pre-miR-199b was cloned in a pcDNA3 modified vector (pREYZO) (D'angelo et al., 2004) using EcoRI-XhoI restriction sites. HES1 and GSK-3˜target-binding sites (3′UTRs) were cloned in tandem in the 3′UTR of 20 the pRL-cytomegalovirus (CMV) vector (Promega, Madison, Wis.) downstream of the coding region of Renilla luciferase (RL) in the XbaI site The HES1 3′UTR (including the 199b binding site) was amplified from genomic DNA with the following primers: HES1—3′UTR as […] (SEQ ID NO: 96) and HES1—3′UTR as […] (SEQ ID NO: 97), and was cloned in the TK vector (Promega, Madison, Wis.) upstream of the firefly luciferase gene, in the XbaI sites. HES1 full-length cDNA was obtained with a standard RTPCR approach from a Daoy cDNA.
The site-directed mutagenesis of the miR-199b-5p binding site in HES1 3′UTR was generated according to the manufacturer protocol of the QuikChange site-directed mutagenesis kit (Stratagene, La Jolla, Calif.). […]
(In general: Reporter assays use an easily measured gene product as a stand-in for the process of interest.)

Where [5] appears, read: stable 199bSC1 clone vs empty vector clone.

Regarding “miR-199b-5p: mature microRNA CCCAGUGUUUAGACUAUCUGUUC (SEQ ID NO:11); over-expressed from pre-miR-199b construct, e.g. stable Daoy clones 199bSC1, 199bMC1 (listed as RNA, chemistry not fully specified)”, the cell motility entry in data set [1] is “did not lead to a decrease in cell motility”. The “changes in cell cycle” value in data set [2] (stable 199bMC1 clone) is reported as “did not show significant changes”. Further, in data set [2] (setting [5]), the “decrease in S-phase fractions” value stood at 31% and the “increase in cells in G0-G1” value stood at 15%. Also, the “tumor growth by BLI” value in data set [3] is reported as “considerably lower”. In data set [4], the “effect on luciferase reporter with HES1 3′UTR mutated in the miR-199b binding site” value is recorded as “no effect”. The “reduction of luciferase activity from wild-type HES1 3′UTR reporter” value in data set [4] (HEK293 and Daoy cell lines) was found to be 50%.
